In PubChem BioAssay (NCI):
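1) Cells in 96-well plates. 2) Compound, 48 h, 5 concentrations. 3) Linear interpolation between surrounding doses. 4) Unreached endpoint = highest concentration. The concentration for full growth arrest is given as TGI.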

Columns and labels:
Assay in all cases: NCI tumour cell line growth inhibition, 48 h
OVCAR-5 ovarian = test system: OVCAR-5 ovarian
PC-3 prostate = test system: PC-3 prostate
A549 NSCLC = test system: A549 NSCLC
HCT-15 colon = test system: HCT-15 colon
EKVX NSCLC = test system: EKVX NSCLC
T-47D breast = test system: T-47D breast
TK-10 renal = test system: TK-10 renal
SK-MEL-28 melanoma = test system: SK-MEL-28 melanoma
MDA-MB-231 breast = test system: MDA-MB-231 breast
HCC-2998 colon = test system: HCC-2998 colon
A498 renal = test system: A498 renal

SMILES	TGI (OVCAR-5 ovarian)	TGI (PC-3 prostate)	TGI (A549 NSCLC)	TGI (HCT-15 colon)	TGI (EKVX NSCLC)	TGI (T-47D breast)	TGI (TK-10 renal)	TGI (SK-MEL-28 melanoma)	TGI (MDA-MB-231 breast)	TGI (HCC-2998 colon)	TGI (A498 renal)
CC(=O)O[C@H]1CC[C@@]2(C)C(=CC[C@@H]3[C@@H]2CC[C@]2(C)C(=O)/C(=C\c4ccccc4)C[C@@H]32)C1	> 100 µM	> 100 µM	> 100 µM	> 100 µM	> 100 µM	> 100 µM	> 100 µM	> 100 µM	> 100 µM	> 100 µM	> 100 µM
COC1=C(OC)C(=O)c2cc(C)c(=O)c(C)cc2C1=O	47.6 µM	49.6 µM	38 µM	45.7 µM	31.5 µM	> 55.4 µM	34 µM	31 µM	20.7 µM	55.1 µM	40.7 µM
CC(=O)C1=C(C)N2C(=NC3=C(CCc4ccccc43)C2c2ccc(Cl)cc2)S1 (centres undefined)	> 100 µM	> 100 µM	> 100 µM	> 100 µM	> 100 µM	> 100 µM	> 100 µM	> 100 µM	> 100 µM	> 100 µM	51 µM
O=C1C(CN2CCCC2)CCC1CN1CCCC1 (centres undefined)	> 55.9 µM	> 55.9 µM	> 100 µM	31.8 µM	> 82.7 µM	37.8 µM	32.6 µM	33.9 µM	26.7 µM	> 100 µM	> 100 µM
Cn1c2ccccc2n2c3ccccc3c3nnc(N)c-3c12	> 100 µM	> 100 µM	> 100 µM	> 100 µM	> 100 µM	12.9 µM	> 100 µM	> 100 µM	> 100 µM	> 100 µM	> 100 µM
N#Cc1nc(CCC(C(=O)O)N2C(=O)c3ccccc3C2=O)oc1N (centres undefined)	> 100 µM	> 100 µM	> 100 µM	> 100 µM	> 100 µM	> 100 µM	> 100 µM	> 100 µM	> 100 µM	> 100 µM	> 100 µM
C[C@H]1CC(=O)C[C@@H]2CC[C@@H]3[C@H](CC[C@]4(C)C(OC(=O)c5cccc6c(=O)c7ccccc7[nH]c56)CC[C@@H]34)[C@]21C (some centres undefined)	> 100 µM	> 100 µM	> 100 µM	> 100 µM	> 100 µM	> 100 µM	> 100 µM	> 100 µM	> 100 µM	> 100 µM	> 100 µM
CC(=O)OCC1OC(NC(=S)Nn2c(-c3ccccc3)nc3ccccc3c2=O)C(OC(C)=O)C(OC(C)=O)C1OC(C)=O (centres undefined)	> 100 µM	> 100 µM	> 100 µM	> 100 µM	> 100 µM	60.2 µM		> 100 µM	> 100 µM	> 100 µM	> 100 µM
CCOC(=O)c1cn2c(n1)sc1cc([N+](=O)[O-])ccc12	> 100 µM	> 100 µM	> 100 µM	> 100 µM	> 100 µM	> 100 µM	> 100 µM	> 100 µM	> 100 µM	> 100 µM	> 100 µM
COc1ccc2nc3cc(Cl)ccc3c(NCCCN(C)CCCNc3ccc4ncn5c6ccccc6c(=O)c3c45)c2c1	6.47 µM	5.34 µM	1.55 µM	> 9.4 µM	7.15 µM	> 17.3 µM	1.76 µM	7.38 µM	6.02 µM	0.423 µM	6.52 µM
C(#C[C@@]12CCC[C@@H]1NCO2)c1ccc2c(c1)OCO2	> 100 µM	> 100 µM	> 100 µM	> 100 µM	> 100 µM	> 100 µM	> 100 µM	> 100 µM	> 100 µM	34.6 µM	> 100 µM
O=c1oc2cc(O)ccc2c(O)c1C(c1ccc(/C=C/c2ccccc2)cc1)c1c(O)c2ccc(O)cc2oc1=O	> 100 µM	> 100 µM	> 100 µM	> 100 µM	> 100 µM	> 100 µM	> 100 µM	60.5 µM	> 100 µM	> 100 µM	> 100 µM
FC(F)(F)c1ccc2c(c1)nc(Cc1ccc(Cl)cc1)n2CC1CCCN2CCCCC12 (centres undefined)	25 µM	20.9 µM	25.1 µM	20.9 µM	23.2 µM	19.6 µM	24.7 µM	6.38 µM	13.1 µM	10.5 µM	27.1 µM
COc1cc(N(CCC#N)CCC#N)ccc1/C(N=Nc1cccc([N+](=O)[O-])c1)=N\NC(=O)c1ccc(C)cc1	> 100 µM	> 100 µM	> 100 µM	> 100 µM	63.1 µM	> 100 µM	> 100 µM	> 100 µM	> 100 µM	> 100 µM	> 100 µM
CC(=O)OC1=C(c2ccccc2)S(=O)(=O)c2ccccc21	> 100 µM	> 100 µM	> 100 µM	> 100 µM	> 100 µM	> 100 µM	> 100 µM	> 100 µM	> 100 µM	> 100 µM	> 100 µM
